This assay concerns PC-3 prostate cancer cells. Briefly: PC3 Cell Viability and Proliferation Assay. In kind it is cell-based. The conditions noted are these: MTS, mean of three independent experiments, read-out: PC3 GI50 D3. The procedure: PC-3 prostate cancer cells were obtained from ATCC, and maintained in F-12K medium containing 7% FBS and 1% penicillin/streptomycin. Cells were incubated at 37° C. in a humidified atmosphere containing 5% CO2.
Cell viability was assayed using the MTS technique in 96-well culture plates (CellTiter 96® Aqueous Non-Radioactive Cell Proliferation Assay, Promega) according to the manufacturer's instructions. MTS (3-(4,5-dimethyl-thiazol-2-yl)-5-(3-carboxymethoxyphenyl)-2-(4-sulfophenyl)-2H-tetrazolium) is a MTT-derived tetrazolium that is reduced in metabolically active cells into a soluble, cell-permeant formazan. The amount of formazan, detected by its absorbance at 492 nm is proportional to the number of living, metabolically active cells.
2×10^3 PC3 cells were seeded per well. 24 hours later, the medium was changed and the cells treated in triplicate with the following concentrations of each compound: 10 μM-3.33 μM-1.11 μM-370 nM-123 nM-41 nM-14 nM and 5 nM. The compounds were diluted in 100% DMSO, whose final concentration on cells was kept at 0.5%.
Cells were incubated with the compounds for 72 hours, and their viability then assayed by the addition of MTS for 2 hours. Absorbance at 492 nm was measured directly from the 96-well culture plates. GI50 (Growth Inhibition 50) concentrations for each compound were calculated using a sigmoidal variable slope fit (Prism 4.0, Graphpad Softwares). Values represent mean of three independent experiments.

Like-named read-outs stand apart in the source and are kept apart here.

We go through four compounds from US7462615B2, “Inhibitors of cysteine proteases, the pharmaceutical compositions thereof and their therapeutic applications” (Hybrigenics SA, priority 2005, dated 2008).

The GI50 is the concentration that inhibits growth by half. For `O=C1c2ccccc2-c2nc3nn(Cc4ccccc4)nc3nc21` [Example 4b, 2-Benzyl-2H-1,2,3,4,10-pentaaza-cyclopenta[b]fluoren-9-one], the GI50 (Homo sapiens, PC-3, 72 hours) was greater than 10 µM.
On the same count and under the same terms, next, `Cn1nc2nc3c(nc2n1)-c1ccccc1C3=O` [Example 4a, 2-Methyl-2H-1,2,3,4,10-pentaaza-cyclopenta[b]fluoren-9-one]: greater than 10 µM.
Regarding “6-(7)-Chloro-1-methyl-2,3,4,10,10a-pentaaza-cyclopenta[b]fluoren-9-one [Example 3/A]”, the GI50 (72 hours) turned out to be 0.994 µM.
In the case of `Nc1nnc2nc3c(nn12)C(=O)c1ccccc1-3` [Example 1c/A, 1-Amino-2,3,4,10,10a-pentaaza-cyclopenta[b]fluoren-9-one], the GI50 (Homo sapiens, PC-3, 72 hours) was greater than 10 µM.
